How the values were obtained:
[1] = Antagonist activity at PAR1 in human platelet-rich plasma assessed as reduction in thrombin-stimulated platelet aggregation preincubated for 3 mins followed by thrombin stimulation measured after 5 mins by aggregometric analysis
[2] = Antagonist activity at PAR1 in human platelet-rich plasma assessed as reduction in TRAP-stimulated platelet aggregation preincubated for 20 mins followed by TRAP stimulation measured after 5 mins by aggregometric analysis
[3] = Antagonist activity at PAR1 in human platelet-rich plasma assessed as reduction in thrombin-stimulated platelet aggregation preincubated for 3 mins followed by thrombin stimulation measured after 5 mins by aggregometric analysis; remark: listed apart in the source

IC50 [1] [nM]	IC50 [2] [nM]	IC50 [3] [nM]	Compound
650	1600	–	C[C@H]1CC[C@@H]2C(C)(C)[C@H](O)CC[C@@]2(C)[C@@H]1/C=C/c1ccc(-c2cccc(F)c2)cn1
–	31	81	CCOC(=O)N[C@@H]1CC[C@@H]2[C@@H](C1)C[C@H]1C(=O)O[C@H](C)[C@H]1[C@H]2C=Cc1ccc(-c2cccc(F)c2)cn1 [Ethyl [(3aR,4aR,8aR,9aS)-9(S)-[(E)-2-[5-(3-fluorophenyl)-2-pyridinyl]ethenyl]dodecahydro-1(R)-methyl-3-oxonaphtho[2,3-c]furan-6(R)-yl]carbamate]
